The target of one experiment is Cholinesterase (Homo sapiens, UniProt P06276).
In another experiment the target is Acetylcholinesterase (Homo sapiens, UniProt P22303).
Sequence of Acetylcholinesterase (P22303 whole entry): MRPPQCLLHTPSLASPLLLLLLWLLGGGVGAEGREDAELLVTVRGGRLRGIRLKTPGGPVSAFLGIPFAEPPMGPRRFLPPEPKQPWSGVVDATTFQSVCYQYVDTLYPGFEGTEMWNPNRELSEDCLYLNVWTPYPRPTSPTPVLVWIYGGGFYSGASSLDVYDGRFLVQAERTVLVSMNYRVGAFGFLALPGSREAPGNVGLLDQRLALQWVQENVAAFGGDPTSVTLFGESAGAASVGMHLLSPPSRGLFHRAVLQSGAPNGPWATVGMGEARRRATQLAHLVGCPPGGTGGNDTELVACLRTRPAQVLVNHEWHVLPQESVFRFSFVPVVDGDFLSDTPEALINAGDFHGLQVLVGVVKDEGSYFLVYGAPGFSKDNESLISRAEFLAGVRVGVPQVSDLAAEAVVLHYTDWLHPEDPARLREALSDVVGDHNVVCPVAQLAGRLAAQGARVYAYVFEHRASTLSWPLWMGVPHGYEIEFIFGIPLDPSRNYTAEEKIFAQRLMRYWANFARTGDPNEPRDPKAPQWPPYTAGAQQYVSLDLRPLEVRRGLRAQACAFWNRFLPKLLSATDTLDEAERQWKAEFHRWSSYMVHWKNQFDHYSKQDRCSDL

Sequence of Cholinesterase (P06276 whole entry): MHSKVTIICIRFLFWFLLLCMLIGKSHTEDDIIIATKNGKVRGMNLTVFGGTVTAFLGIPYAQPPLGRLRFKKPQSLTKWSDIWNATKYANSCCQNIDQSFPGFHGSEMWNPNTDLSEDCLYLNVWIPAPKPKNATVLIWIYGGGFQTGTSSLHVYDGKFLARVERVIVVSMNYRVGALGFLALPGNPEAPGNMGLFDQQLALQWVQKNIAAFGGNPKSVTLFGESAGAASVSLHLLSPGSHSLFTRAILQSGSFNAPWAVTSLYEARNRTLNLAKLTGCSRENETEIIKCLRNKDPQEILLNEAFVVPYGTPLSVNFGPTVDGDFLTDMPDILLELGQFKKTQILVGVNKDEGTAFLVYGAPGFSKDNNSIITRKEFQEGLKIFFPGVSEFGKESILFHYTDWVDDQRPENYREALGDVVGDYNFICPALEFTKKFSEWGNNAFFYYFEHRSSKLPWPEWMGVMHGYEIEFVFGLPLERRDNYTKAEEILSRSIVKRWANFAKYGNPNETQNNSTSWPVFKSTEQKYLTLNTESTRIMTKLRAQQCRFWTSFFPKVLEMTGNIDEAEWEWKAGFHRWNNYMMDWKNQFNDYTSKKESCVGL
Description for Acetylcholinesterase: Ex vivo inhibition of human erythrocyte Acetylcholinesterase.

With `CN1CC[C@@]2(C)c3cc(OC(=O)Nc4ccccc4)ccc3N(C)[C@H]2O1`, the IC50 is 815 nM against Cholinesterase and 130 nM at Acetylcholinesterase.

Take `CNC(=O)Oc1ccc2c(c1)[C@]1(C)CC[N@@+](C)([O-])[C@@H]1N2C`: the results for the concentration for half-maximal inhibition (IC50) at Cholinesterase and on Acetylcholinesterase were 660 nM and 100 nM, respectively.

Consider `CN1c2ccc(OC(=O)Nc3ccccc3)cc2[C@]2(C)CC[N@@+](C)([O-])[C@H]12`, for which the IC50 was more than 10000 nM against Cholinesterase and 200 nM at Acetylcholinesterase.

On to `CC(C)c1ccc(NC(=O)Oc2ccc3c(c2)[C@]2(C)CC[N@@+](C)([O-])[C@@H]2N3C)cc1`, for which the IC50 at Cholinesterase was 5200 nM; at Acetylcholinesterase, more than 10000 nM.

With `Cc1ccccc1NC(=O)Oc1ccc2c(c1)[C@]1(C)CC[N@@+](C)([O-])[C@@H]1N2C`, the IC50 against Cholinesterase is more than 10000 nM; against Acetylcholinesterase, 180 nM.

For the molecule `CCc1ccccc1NC(=O)Oc1ccc2c(c1)[C@]1(C)CC[N@@+](C)([O-])[C@@H]1N2C`, the IC50 at Cholinesterase was 1700 nM; on Acetylcholinesterase, 125 nM.

For the molecule `Cc1ccccc1NC(=O)Oc1ccc2c(c1)[C@]1(C)CCN(C)O[C@@H]1N2C`, the figures for the IC50 on Cholinesterase and at Acetylcholinesterase were 1570 nM and 175 nM, respectively.

For `CCc1ccccc1NC(=O)Oc1ccc2c(c1)[C@]1(C)CCN(C)O[C@@H]1N2C` [GANSTIGMINE], the IC50 against Cholinesterase was determined as 310 nM; against Acetylcholinesterase, 65 nM.

On to `CC(C)c1ccc(NC(=O)Oc2ccc3c(c2)[C@]2(C)CCN(C)O[C@@H]2N3C)cc1`, for which the values for the half-maximal inhibitory concentration (IC50) against Cholinesterase and against Acetylcholinesterase were 25 nM and more than 10000 nM, respectively.

Consider `CCCCCCCNC(=O)Oc1ccc2c(c1)[C@]1(C)CCN(C)[C@@H]1N2C` [EPTASTIGMINE], for which the half-inhibitory concentration (IC50) stood at 5 nM at Cholinesterase and 22 nM against Acetylcholinesterase.

As to `C/C=C1\[C@H]2C=C(C)C[C@]1(N)c1ccc(=O)[nH]c1C2` [HUPERZINE A], on Cholinesterase, the IC50 is more than 10000 nM.

In turn, `CNC(=O)Oc1ccc2c(c1)[C@]1(C)CCN(C)O[C@@H]1N2C` [ESERIDINE] showed a half-maximal inhibitory concentration (IC50) against Cholinesterase of 12 nM.

A word on the IC50: it is the midpoint of a concentration-inhibition curve. The low end stands for inhibition by little substance, the high end for a need for much substance.

The record behind these values is ChEMBL document CHEMBL1135547, “Anticholinesterase activity of compounds related to geneserine tautomers. N-Oxides and 1,2-oxazines” (J Med Chem, 2002).
